Measurements: US12522583B2, “Benzimidazole derivatives and aza-benzimidazole derivatives as Janus kinase 2 inhibitors and uses thereof” (Dana-Farber Cancer Institute, Inc., priority 2018, dated 2026)

Key:
Test in all cases: KINOMEscan
Assay type in all cases: binding
Conditions in all cases: read-out: percent control
CSNK1G1 = CSNK1G1 (Homo sapiens (Human), UniProt Q9HCP0)
Text: (§1) Example 2. In Vitro Kinase Selectivity Profiling of the Compounds of the Present Disclosure

EGFR(L858R) = EGFR(L858R) (Homo sapiens (Human), UniProt P00533, L858R)
Text: as §1

TSSK3 = TSSK3 (Homo sapiens (Human), UniProt Q96PN8)
Text: as §1

IKK-beta = IKK-beta (Homo sapiens (Human), UniProt O14920)
Text: as §1

LIMK1 = LIMK1 (Homo sapiens (Human), UniProt P53667)
Text: as §1

[1] = biological target: ABL1(T315I)-phosphorylated (Homo sapiens (Human), UniProt P00519, T315I)
Text: as §1

FLT3(N841I) = FLT3(N841I) (Homo sapiens (Human), UniProt P36888, N841I)
Text: as §1

PDGFRA = PDGFRA (Homo sapiens (Human), UniProt P16234)
Text: as §1

LATS1 = LATS1 (Homo sapiens (Human), UniProt O95835)
Text: as §1

[2] = biological target: JAK2(JH1domain-catalytic) (Homo sapiens (Human), UniProt O60674)
Text: as §1

BIKE = BIKE (Homo sapiens (Human), UniProt Q9NSY1)
Text: as §1

[3] = biological target: ABL1(Q252H)-phosphorylated (Homo sapiens (Human), UniProt P00519, Q252H)
Text: as §1

HUNK = HUNK (Homo sapiens (Human), UniProt P57058)
Text: as §1

KIT(V559D) = KIT(V559D) (Homo sapiens (Human), UniProt P10721, V559D)
Text: as §1

EPHA7 = EPHA7 (Homo sapiens (Human), UniProt Q15375)
Text: as §1

EGFR(E746-A750del) = EGFR(E746-A750del) (Homo sapiens (Human), UniProt P00533, DEL746-750)
Text: as §1

DCAMKL2 = DCAMKL2 (Homo sapiens (Human), UniProt Q8N568)
Text: as §1

LTK = LTK (Homo sapiens (Human), UniProt P29376)
Text: as §1

IKK-alpha = IKK-alpha (Homo sapiens (Human), UniProt O15111)
Text: as §1

TNK2 = TNK2 (Homo sapiens (Human), UniProt Q07912)
Text: as §1

PRKCE = PRKCE (Homo sapiens (Human), UniProt Q02156)
Text: as §1

ARK5 = ARK5 (Homo sapiens (Human), UniProt O60285)
Text: as §1

CSNK1A1L = CSNK1A1L (Homo sapiens (Human), UniProt Q8N752)
Text: as §1

PRKX = PRKX (Homo sapiens (Human), UniProt P51817)
Text: as §1

HIPK1 = HIPK1 (Homo sapiens (Human), UniProt Q86Z02)
Text: as §1

ULK3 = ULK3 (Homo sapiens (Human), UniProt Q6PHR2)
Text: as §1

ACVR2B = ACVR2B (Homo sapiens (Human), UniProt Q13705)
Text: as §1

FGFR1 = FGFR1 (Homo sapiens (Human), UniProt P11362)
Text: as §1

ALK = ALK (Homo sapiens (Human), UniProt Q9UM73)
Text: as §1

IKK-alpha, sequence (O15111 whole entry): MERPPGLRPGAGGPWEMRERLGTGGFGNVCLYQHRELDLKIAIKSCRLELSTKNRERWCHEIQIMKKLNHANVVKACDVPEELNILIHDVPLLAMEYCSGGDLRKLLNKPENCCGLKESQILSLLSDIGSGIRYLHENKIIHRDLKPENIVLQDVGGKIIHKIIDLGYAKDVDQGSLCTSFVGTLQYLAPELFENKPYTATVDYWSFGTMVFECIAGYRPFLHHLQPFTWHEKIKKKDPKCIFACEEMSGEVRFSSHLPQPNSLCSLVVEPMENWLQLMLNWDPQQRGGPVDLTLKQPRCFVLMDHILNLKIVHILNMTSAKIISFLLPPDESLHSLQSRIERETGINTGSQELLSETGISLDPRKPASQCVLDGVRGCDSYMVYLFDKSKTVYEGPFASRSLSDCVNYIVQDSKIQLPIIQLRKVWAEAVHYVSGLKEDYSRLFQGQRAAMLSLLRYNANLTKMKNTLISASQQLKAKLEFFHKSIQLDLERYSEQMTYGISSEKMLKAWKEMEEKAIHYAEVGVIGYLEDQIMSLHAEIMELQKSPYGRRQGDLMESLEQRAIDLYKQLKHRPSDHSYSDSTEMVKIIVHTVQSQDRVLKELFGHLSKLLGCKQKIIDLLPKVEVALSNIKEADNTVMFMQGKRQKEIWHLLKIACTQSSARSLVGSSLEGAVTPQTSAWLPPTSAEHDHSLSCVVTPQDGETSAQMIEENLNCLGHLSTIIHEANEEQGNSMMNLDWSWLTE
CSNK1G1, sequence (Q9HCP0 whole entry): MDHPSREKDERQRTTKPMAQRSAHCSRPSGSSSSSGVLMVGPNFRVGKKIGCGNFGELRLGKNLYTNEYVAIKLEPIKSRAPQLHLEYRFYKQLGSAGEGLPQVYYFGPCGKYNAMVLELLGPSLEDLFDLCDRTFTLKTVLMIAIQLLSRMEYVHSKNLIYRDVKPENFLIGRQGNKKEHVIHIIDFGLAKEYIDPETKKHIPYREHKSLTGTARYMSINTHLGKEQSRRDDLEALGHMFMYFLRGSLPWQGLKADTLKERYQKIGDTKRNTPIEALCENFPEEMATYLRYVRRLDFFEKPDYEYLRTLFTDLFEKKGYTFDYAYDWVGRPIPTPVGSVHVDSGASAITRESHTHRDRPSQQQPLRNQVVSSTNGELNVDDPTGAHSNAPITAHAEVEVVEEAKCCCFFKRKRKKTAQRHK
LIMK1, sequence (P53667 whole entry): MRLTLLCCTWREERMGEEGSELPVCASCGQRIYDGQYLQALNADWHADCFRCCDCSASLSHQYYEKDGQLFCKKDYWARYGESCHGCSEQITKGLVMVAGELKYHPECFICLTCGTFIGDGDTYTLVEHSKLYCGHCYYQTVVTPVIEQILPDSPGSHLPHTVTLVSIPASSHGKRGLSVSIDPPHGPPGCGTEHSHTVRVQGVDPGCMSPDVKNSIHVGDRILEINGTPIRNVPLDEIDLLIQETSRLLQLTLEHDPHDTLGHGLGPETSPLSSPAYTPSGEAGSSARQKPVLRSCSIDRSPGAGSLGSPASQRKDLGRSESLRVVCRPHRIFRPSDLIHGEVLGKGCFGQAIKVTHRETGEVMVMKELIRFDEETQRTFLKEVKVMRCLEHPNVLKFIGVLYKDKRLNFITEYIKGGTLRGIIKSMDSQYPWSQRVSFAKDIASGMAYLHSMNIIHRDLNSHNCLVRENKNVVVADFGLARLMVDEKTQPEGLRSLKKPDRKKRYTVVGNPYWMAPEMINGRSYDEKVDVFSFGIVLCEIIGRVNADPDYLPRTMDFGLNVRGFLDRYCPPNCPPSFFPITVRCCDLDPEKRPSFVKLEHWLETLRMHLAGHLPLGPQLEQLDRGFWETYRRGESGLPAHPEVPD
ARK5, sequence (O60285 whole entry): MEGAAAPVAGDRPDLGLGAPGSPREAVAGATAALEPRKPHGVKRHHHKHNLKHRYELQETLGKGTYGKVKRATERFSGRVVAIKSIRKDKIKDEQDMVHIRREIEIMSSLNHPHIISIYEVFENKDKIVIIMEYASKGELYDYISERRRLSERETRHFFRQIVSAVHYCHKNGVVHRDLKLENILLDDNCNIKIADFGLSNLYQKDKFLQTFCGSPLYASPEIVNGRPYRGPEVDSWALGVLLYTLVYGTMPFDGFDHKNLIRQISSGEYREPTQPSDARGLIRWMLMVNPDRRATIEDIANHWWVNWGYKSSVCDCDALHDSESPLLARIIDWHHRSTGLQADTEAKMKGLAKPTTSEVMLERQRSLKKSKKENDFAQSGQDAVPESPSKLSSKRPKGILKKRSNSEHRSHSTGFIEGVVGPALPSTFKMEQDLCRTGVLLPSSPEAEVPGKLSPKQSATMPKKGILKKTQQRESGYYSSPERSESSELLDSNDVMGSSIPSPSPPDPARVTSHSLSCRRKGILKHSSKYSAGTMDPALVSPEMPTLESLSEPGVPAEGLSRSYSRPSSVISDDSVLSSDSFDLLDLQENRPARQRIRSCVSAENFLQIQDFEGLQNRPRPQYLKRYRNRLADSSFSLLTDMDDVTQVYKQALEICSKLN
PRKCE, sequence (Q02156 whole entry): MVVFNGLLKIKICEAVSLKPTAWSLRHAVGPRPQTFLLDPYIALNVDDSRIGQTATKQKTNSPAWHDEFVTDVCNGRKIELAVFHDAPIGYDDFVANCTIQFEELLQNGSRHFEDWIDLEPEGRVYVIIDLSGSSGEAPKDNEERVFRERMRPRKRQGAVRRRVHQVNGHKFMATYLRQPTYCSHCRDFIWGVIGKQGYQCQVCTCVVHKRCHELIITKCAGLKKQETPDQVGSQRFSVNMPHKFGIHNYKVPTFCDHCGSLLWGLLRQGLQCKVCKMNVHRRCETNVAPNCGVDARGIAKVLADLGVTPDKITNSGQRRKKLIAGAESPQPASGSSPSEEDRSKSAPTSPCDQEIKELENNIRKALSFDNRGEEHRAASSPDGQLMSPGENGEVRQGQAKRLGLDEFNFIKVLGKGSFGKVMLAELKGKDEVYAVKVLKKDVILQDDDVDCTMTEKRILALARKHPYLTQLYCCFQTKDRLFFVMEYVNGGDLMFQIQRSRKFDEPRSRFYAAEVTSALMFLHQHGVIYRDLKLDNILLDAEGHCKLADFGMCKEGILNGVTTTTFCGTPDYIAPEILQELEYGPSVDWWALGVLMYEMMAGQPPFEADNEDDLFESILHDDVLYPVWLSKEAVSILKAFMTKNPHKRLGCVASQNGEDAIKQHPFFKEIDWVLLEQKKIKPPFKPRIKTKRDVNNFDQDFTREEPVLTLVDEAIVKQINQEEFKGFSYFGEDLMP
TSSK3, sequence (Q96PN8 whole entry): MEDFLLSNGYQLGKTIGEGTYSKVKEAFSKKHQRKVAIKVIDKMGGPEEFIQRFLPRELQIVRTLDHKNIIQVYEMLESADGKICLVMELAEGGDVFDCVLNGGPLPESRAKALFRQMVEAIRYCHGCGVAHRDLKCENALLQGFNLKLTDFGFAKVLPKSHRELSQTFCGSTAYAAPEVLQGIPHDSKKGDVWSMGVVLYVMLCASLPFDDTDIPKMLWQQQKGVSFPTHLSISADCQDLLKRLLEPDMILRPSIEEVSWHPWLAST
LTK, sequence (P29376 17-864): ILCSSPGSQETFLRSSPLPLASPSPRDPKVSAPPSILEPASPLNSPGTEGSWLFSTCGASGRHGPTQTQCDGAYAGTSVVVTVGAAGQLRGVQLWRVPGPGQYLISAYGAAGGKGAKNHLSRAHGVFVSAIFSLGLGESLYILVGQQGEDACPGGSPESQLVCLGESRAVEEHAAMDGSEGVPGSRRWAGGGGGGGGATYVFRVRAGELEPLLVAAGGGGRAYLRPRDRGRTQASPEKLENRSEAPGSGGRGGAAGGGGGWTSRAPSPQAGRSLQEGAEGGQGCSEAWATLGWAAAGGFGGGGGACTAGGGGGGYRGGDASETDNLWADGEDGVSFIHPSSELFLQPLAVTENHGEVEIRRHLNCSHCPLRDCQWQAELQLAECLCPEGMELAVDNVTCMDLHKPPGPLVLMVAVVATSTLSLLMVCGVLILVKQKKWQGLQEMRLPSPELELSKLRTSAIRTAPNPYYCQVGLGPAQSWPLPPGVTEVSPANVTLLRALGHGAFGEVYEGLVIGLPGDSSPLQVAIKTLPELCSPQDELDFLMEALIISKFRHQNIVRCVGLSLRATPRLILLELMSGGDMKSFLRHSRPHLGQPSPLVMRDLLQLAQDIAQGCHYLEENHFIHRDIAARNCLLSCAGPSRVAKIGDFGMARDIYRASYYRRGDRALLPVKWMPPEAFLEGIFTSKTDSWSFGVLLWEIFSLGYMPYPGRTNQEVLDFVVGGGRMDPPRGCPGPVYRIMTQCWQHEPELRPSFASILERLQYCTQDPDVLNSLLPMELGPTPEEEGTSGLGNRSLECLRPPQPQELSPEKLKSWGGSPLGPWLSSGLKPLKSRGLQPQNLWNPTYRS
ULK3, sequence (Q6PHR2 whole entry): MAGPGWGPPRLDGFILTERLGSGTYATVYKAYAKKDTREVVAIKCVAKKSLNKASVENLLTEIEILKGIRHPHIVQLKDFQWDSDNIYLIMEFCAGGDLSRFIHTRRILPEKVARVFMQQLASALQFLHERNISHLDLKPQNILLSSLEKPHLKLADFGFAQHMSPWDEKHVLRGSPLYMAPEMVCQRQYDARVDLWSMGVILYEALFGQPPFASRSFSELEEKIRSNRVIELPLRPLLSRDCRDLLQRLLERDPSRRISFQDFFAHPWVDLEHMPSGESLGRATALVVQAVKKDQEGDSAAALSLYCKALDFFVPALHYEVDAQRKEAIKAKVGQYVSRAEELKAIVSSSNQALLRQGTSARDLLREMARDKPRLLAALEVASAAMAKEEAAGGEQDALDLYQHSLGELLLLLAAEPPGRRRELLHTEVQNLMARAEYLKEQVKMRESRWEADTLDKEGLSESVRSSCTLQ

SMILES | remaining binding at 1 µM (CSNK1G1) [%] | remaining binding at 1 µM (EGFR(L858R)) [%] | remaining binding at 1 µM (TSSK3) [%] | remaining binding at 1 µM (IKK-beta) [%] | remaining binding at 1 µM (LIMK1) [%] | remaining binding at 1 µM [1] [%] | remaining binding at 1 µM (FLT3(N841I)) [%] | remaining binding at 1 µM (PDGFRA) [%] | remaining binding at 1 µM (LATS1) [%] | remaining binding at 1 µM [2] [%] | remaining binding at 1 µM (BIKE) [%] | remaining binding at 1 µM [3] [%] | remaining binding at 1 µM (HUNK) [%] | remaining binding at 1 µM (KIT(V559D)) [%] | remaining binding at 1 µM (EPHA7) [%] | remaining binding at 1 µM (EGFR(E746-A750del)) [%] | remaining binding at 1 µM (DCAMKL2) [%] | remaining binding at 1 µM (LTK) [%] | remaining binding at 1 µM (IKK-alpha) [%] | remaining binding at 1 µM (TNK2) [%] | also measured
CCN1CCN(Cc2ccc(Nc3nc4ccc(Oc5ccnc(NC(C)=O)c5)cc4n3C)cc2C(F)(F)F)CC1 [Compound I-2] | 100 | 83 | 86 | 98 | 100 | 62 | 11 | 3.8 | 42 | 16 | 88 | 36 | 65 | 0 | 93 | 91 | 89 | 61 | 100 | 94 | remaining binding at 1 µM (PRKCE): 100%; remaining binding at 1 µM (ARK5): 100%; remaining binding at 1 µM (CSNK1A1L): 86%; remaining binding at 1 µM (PRKX): 100%; remaining binding at 1 µM (HIPK1): 56%; remaining binding at 1 µM (ULK3): 92%; remaining binding at 1 µM (ACVR2B): 97%; remaining binding at 1 µM (FGFR1): 86%; remaining binding at 1 µM (ALK): 76%
CCN1CCN(Cc2ccc(Nc3nc4ccc(Oc5ccnc(NC(C)=O)c5)c(C)c4n3C)cc2C(F)(F)F)CC1 [Compound I-6, N-(4-(2-(4-((4-ethylpiperazin-1-yl)methyl)-3-(trifluoromethyl)phenylamino)-1,7-dimethyl-1H-benzo[d]imidazol-6-yloxy)pyridin-2-yl)acetamide] | 100 | 97 | 100 | 72 | 65 | 87 | 14 | 4.2 | 95 | 29 | 96 | 24 | 91 | 0.15 | 99 | 89 | 100 | 22 | 75 | 100 | remaining binding at 1 µM (PRKCE): 92%; remaining binding at 1 µM (ARK5): 100%; remaining binding at 1 µM (CSNK1A1L): 100%; remaining binding at 1 µM (PRKX): 100%; remaining binding at 1 µM (HIPK1): 81%; remaining binding at 1 µM (ULK3): 79%; remaining binding at 1 µM (ACVR2B): 100%; remaining binding at 1 µM (FGFR1): 75%; remaining binding at 1 µM (ALK): 90%
